# Test results taken from article PMC9501983, “Transport and Permeation Properties of Dapivirine: Understanding Potential Drug-Drug Interactions” (Pharmaceutics, 2022).
# Key:
# ENT1 = molecular target: T1, ENT1 (Homo sapiens, UniProt Q99808); experiment: Cellular uptake in HEK293 ENT1 and EV cells; assay type: in vitro ADME
# T1 construct: host or cells: HEK293
# T1 sequence (Q99808 1-456): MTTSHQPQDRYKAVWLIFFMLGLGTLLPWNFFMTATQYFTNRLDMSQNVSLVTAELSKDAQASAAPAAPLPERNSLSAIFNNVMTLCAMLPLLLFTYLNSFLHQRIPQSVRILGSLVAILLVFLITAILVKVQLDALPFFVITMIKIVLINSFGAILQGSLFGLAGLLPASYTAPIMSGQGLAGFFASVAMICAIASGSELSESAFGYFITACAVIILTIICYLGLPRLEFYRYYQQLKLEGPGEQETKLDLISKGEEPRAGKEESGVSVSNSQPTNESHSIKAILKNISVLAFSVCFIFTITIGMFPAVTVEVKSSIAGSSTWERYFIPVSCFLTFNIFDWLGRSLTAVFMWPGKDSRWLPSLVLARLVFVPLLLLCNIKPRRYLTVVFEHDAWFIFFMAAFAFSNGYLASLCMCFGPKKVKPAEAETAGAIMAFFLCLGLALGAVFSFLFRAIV
# Procedure: HEK293 ENT1 and HEK293 EV cells were seeded at a density of 5 x 10^4 cells per well in 24-well plates and cultured for 4 days. Before the uptake assay, cells were starved in serum-free minimum essential medium at 37 °C for 3 h to activate the ENT1 transporter. The assays were performed in Krebs-Ringer buffer with pH 7.4 supplemented with 25 mM sodium bicarbonate and 1.2 mM calcium chloride dihydrate. […] 200 nM nitrobenzylthioinosine was also used as the positive control for ENT1 inhibition.
# Starved cells were first incubated with respective inhibitor solution or blank Krebs-Ringer buffer for 30 min at 37 °C. […] To terminate the assay, ice-cold Dulbecco’s phosphate-buffered saline was added to cells. Cells were then washed twice with ice-cold Dulbecco’s phosphate-buffered saline and lysed with 1% SDS at room temperature for 20 min. […] The drug uptake was normalized against protein content. Changes in drug uptake between groups were calculated using the mean uptake values of individual groups.
# human cervical tissue = experiment: Histology (H&E) of human cervical tissue after permeability assay; conditions: 6-h exposure, clinically relevant concentrations
# Procedure: Gross morphology of tissue samples was evaluated using hematoxylin and eosin (H&E) staining. After fixation in formalin, tissue samples were dehydrated in alcohol, cleared in xylene, and embedded in paraffin wax. Five-micron sections of embedded tissue were used to perform H&E staining following manufacturer’s procedures (hematoxylin for 5 min, bluing reagent for 15 s, and eosin for 2 min) and mounted onto microscope slides using Cytoseal 60. Images were acquired using the AxioCam software, version 4.9.1 (Carl Zeiss, San Diego, CA, USA) paired with the microscope, Axioskop 40 (Carl Zeiss, San Diego, CA, USA).
# MRP4 = system: MRP4; design: method as in PMID 26102284; conditions: DPV at 10 μM; cited from earlier work
# CYP3A4 = system: CYP3A4; design: method as in PMID 34959473; conditions: cited from earlier work
# UGT enzymes = system: UGT enzymes; design: method as in PMID 34959473; conditions: cited from earlier work
# BCRP = molecular target: T2, BCRP (Homo sapiens, UniProt Q9UNQ0); experiment: Bi-directional transport across MDCKII BCRP and WT/EV cell monolayers
# T2 sequence (Q9UNQ0 1-655): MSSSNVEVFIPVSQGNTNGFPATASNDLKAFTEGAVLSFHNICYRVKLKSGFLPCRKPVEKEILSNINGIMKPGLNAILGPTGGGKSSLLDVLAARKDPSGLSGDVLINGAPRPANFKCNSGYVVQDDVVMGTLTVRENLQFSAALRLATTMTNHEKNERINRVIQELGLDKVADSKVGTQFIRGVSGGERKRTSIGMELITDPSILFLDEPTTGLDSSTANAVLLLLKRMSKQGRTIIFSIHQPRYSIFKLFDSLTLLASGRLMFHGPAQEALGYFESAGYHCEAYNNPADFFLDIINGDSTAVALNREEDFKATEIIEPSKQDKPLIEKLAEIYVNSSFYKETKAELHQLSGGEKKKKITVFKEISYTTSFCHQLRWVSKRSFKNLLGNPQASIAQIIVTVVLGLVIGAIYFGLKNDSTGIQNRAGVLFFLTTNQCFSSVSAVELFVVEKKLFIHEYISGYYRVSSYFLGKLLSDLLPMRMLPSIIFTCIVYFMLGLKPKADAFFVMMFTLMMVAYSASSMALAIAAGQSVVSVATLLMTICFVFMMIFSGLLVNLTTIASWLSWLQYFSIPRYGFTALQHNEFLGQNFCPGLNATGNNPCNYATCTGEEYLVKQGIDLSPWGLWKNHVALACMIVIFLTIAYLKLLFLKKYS
smiles,measurement,setting,value
"Cc1cc(C)c(Nc2ccnc(Nc3ccc(C#N)cc3)n2)c(C)c1 [DPV, dapivirine]","Cellular uptake of thymidine in HEK293 ENT1 cells, reduced to % of control","ENT1; 5 nM thymidine, nitrobenzylthioinosine 200 nM, DPV 5 μM",no significant impact
same,Cellular uptake of DPV in HEK293 ENT1 cells compared with HEK293 EV cells,"ENT1; 0.5 μM DPV, 10 min, 37 °C",similar
same,Substrate status for ENT1,ENT1; cellular system,not a substrate
same,Gross morphology of human cervical epithelium after exposure,human cervical tissue,did not alter the gross morphology
same,Effect on MRP4 expression level,MRP4,downregulating
same,Substrate of CYP3A4,CYP3A4,substrate
same,Substrate of UGT enzymes,UGT enzymes,not a substrate
same,"DPV ER in MDCKII BCRP cells with Ko143, reduced to % of ER without","BCRP; 0.5 μM DPV, 1 μM Ko143",85%
same,Impact on Papp of nitrofurantoin across MDCKII BCRP monolayers (either direction),"BCRP; 5 μM DPV, 1 μM nitrofurantoin",no significant impact
same,Substrate status for BCRP,BCRP; cellular system,not a substrate
same,"efflux ratio at 90 min, 0.5 μM","BCRP; dog, pH 7.4",1.33
